Source: PubChem BioAssay (NCI)
Several values for one entry are separate records, joined by “and”; a condition that tells them apart may be missing. Equal entries are not always repeated.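 Five concentrations, 48 hours, 96-well plates. Here, GI50 denotes the concentration required for 50% inhibition of growth. TGI is the concentration that stops growth completely.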

What follows are compounds tested on COLO 205 colon (assay: NCI tumour cell line growth inhibition, 48 h).

Row | Compound | GI50 | TGI
1 | O=S(=O)(NC1=NCCN1C(=S)SN1CCn2c1nsc2=S)c1ccc(Br)cc1 | 28700 nM | 86.3 µM
2 | CC(=O)N[C@H]1C=C[C@@H]2/C=C(C)/C=C/[C@@H](C)[C@H]([C@H](C)[C@H](O)[C@@H](C)NC(C)=O)OC(=O)/C=C/C=C(C)\C=C\[C@]2(C)C1 | 17.3 nM and 4.5 nM | 4.65 µM and 5.38 µM
3 | O=C1c2ccccc2-c2c1c1ccccc1c(=O)n2CCCNCCCn1ccnc1 | 2130 nM | 13.2 µM
4 | CC1=C(C(=O)Nc2ccccc2C)C(c2ccc(Cl)c(Cl)c2)C(C(=O)Nc2ccccc2C)=C(C)N1 | – | 30 µM
5 | ClCc1cccc(Cn2cnc3c(NC45CC6CC(CC(C6)C4)C5)ncnc32)c1 | 20500 nM | > 69.4 µM
6 | O=c1c2cc(Cl)ccc2oc2ccc(OCCCCCN3CCCCC3)cc12 | 1000 nM | 2.29 µM
7 | Cc1cc(I)cc(CN(C)CCCN2CCSCC2)c1O | 25200 nM | 55.3 µM
8 | Cc1[nH]c2ccccc2c1C1Cc2ccccc2N1C(=O)/C=C\C(=O)O (stereo not drawn) | – | > 100 µM
9 | O=C1c2ccccc2C(=O)N1CCCSc1ccccc1 | – | > 100 µM
10 | CCOC(=O)Nc1nc2ccc(Cn3cccc3)cc2[nH]1 | – | 17.7 µM
11 | COc1cc(Nc2nccc(Nc3ccc4c(C)[nH]nc4c3)n2)cc(OC)c1OC | 2020 nM | 5.65 µM
12 | COc1ccc(/C=N\NC(=O)CN2CCN(c3cc4c(cc3F)c(=O)c(C(=O)N/N=C/c3ccc(OC)c(OC)c3)cn4C3CC3)CC2)cc1OC | 3380 nM | 14.8 µM

What follows are compounds tested on IGROV1 ovarian (assay: NCI tumour cell line growth inhibition, 48 h).

Row | Compound | GI50 | TGI
13 | O=S(=O)(NC1=NCCN1C(=S)SN1CCn2c1nsc2=S)c1ccc(Br)cc1 | 30.7 µM | 95 µM
14 | CC(=O)N[C@H]1C=C[C@@H]2/C=C(C)/C=C/[C@@H](C)[C@H]([C@H](C)[C@H](O)[C@@H](C)NC(C)=O)OC(=O)/C=C/C=C(C)\C=C\[C@]2(C)C1 | 0.0215 µM and 0.00532 µM | 4.65 µM and > 45 µM
15 | O=C1c2ccccc2-c2c1c1ccccc1c(=O)n2CCCNCCCn1ccnc1 | 0.442 µM | –
16 | CC1=C(C(=O)Nc2ccccc2C)C(c2ccc(Cl)c(Cl)c2)C(C(=O)Nc2ccccc2C)=C(C)N1 | – | 93.1 µM
17 | ClCc1cccc(Cn2cnc3c(NC45CC6CC(CC(C6)C4)C5)ncnc32)c1 | 18.3 µM | 45.8 µM
18 | O=c1c2cc(Cl)ccc2oc2ccc(OCCCCCN3CCCCC3)cc12 | 6.77 µM | 14.4 µM
19 | Cc1cc(I)cc(CN(C)CCCN2CCSCC2)c1O | 33.3 µM | > 100 µM
20 | Cc1[nH]c2ccccc2c1C1Cc2ccccc2N1C(=O)/C=C\C(=O)O (stereo not drawn) | – | > 100 µM
21 | O=C1c2ccccc2C(=O)N1CCCSc1ccccc1 | – | > 100 µM
22 | CCOC(=O)Nc1nc2ccc(Cn3cccc3)cc2[nH]1 | – | > 100 µM
23 | COc1cc(Nc2nccc(Nc3ccc4c(C)[nH]nc4c3)n2)cc(OC)c1OC | 0.858 µM | 5.6 µM
24 | COc1ccc(/C=N\NC(=O)CN2CCN(c3cc4c(cc3F)c(=O)c(C(=O)N/N=C/c3ccc(OC)c(OC)c3)cn4C3CC3)CC2)cc1OC | 3.1 µM | 17.1 µM

These compounds were tested on HCC-2998 colon (assay: NCI tumour cell line growth inhibition, 48 h).

Row | Compound | GI50 [µM] | TGI [µM]
25 | O=S(=O)(NC1=NCCN1C(=S)SN1CCn2c1nsc2=S)c1ccc(Br)cc1 | 63.9 | > 100
26 | CC(=O)N[C@H]1C=C[C@@H]2/C=C(C)/C=C/[C@@H](C)[C@H]([C@H](C)[C@H](O)[C@@H](C)NC(C)=O)OC(=O)/C=C/C=C(C)\C=C\[C@]2(C)C1 | 5.04 | > 45
27 | O=C1c2ccccc2-c2c1c1ccccc1c(=O)n2CCCNCCCn1ccnc1 | 0.894 | 2.38
28 | CC1=C(C(=O)Nc2ccccc2C)C(c2ccc(Cl)c(Cl)c2)C(C(=O)Nc2ccccc2C)=C(C)N1 | – | 69.9
29 | ClCc1cccc(Cn2cnc3c(NC45CC6CC(CC(C6)C4)C5)ncnc32)c1 | 16.7 | 32.2
